Measurements from patent US20220000964A1, “Compositions and Methods for Regulating Homeostasis of Chondrocytes, Extracellular Matrix, Articular Cartilage, and Phenotype of Arthritis” (Unigen, Inc., priority 2020, published 2022).
Read-outs that look alike come from different tables or passages of the source.

Tests used:
Assay type in all cases: in vivo, rat
[1] = system: IL-6; test: MIA-induced OA rats, serum IL-6; settings: 10 mg/kg
Method: Treatment started a week before MIA injection. […] On the induction day, isoflurane (Lot #B66H15A, Piramal Enterprise Ltd. Andhra Pradesh, India) anesthetized rats were injected with 0.8 mg of MIA (Lot #A0352046, Acros Organics, New Jersey, USA) in 50 μL saline solution into the intra-articular pocket of left femorotibial (knee) joint using 26 G needle an hour after treatment. Normal control rats were injected with an equal volume of saline. […] Body weights were measured once a week to calculate the respective weekly dosage of each group. […] The fixed specimens were then decalcified with Calci-Clear Rapid for 1 and a half days and embedded in paraffin. […] The histological analysis was conducted by a certified Pathologist at Nationwide Histology.

[2] = system: Sprague Dawley rats; test: Hot plate test, topical application, paw withdrawal latency; settings: dose (%): Ibuprofen 5, Capsaicin 0.5, Diclofenac 1, others 5
Excerpt: Repeated application of anti-inflammatory compounds or extracts topically at the site of thermal contact (noxious stimulus) may cause desensitization of the peripheral afferent pain receptors to produce a delay in response time. A longer change in reaction time could be interpreted as an anti-nociceptive effect of the applied compound. To evaluate whether prepared plant extracts and compositions could provide anti-nociceptive activity, rats received orally-active anti-inflammatory extracts formulated in 2% Aloe vera gel at 5% concentration topically on their hind paws. The applied preparations on each paw were massaged at least 60 times in a circular motion into the skin until the applied content appeared visually absorbed. The procedure was repeated 3 times, every 30 minutes, before placing the animals on a preheated hot plate set to 53° C. The paw withdrawal latency was calculated as the time elapsed from the initial placement of the rat onto the hotplate to the withdrawal (or licking or shaking) of the hind paw in response to the thermal stimulus. Animals were immediately removed when this response was observed.
The anti-pain activity of medicinal plant extracts was tested on a hot plate set at 53° C. Test materials at 5% concentrations were topically applied at 20 μl/paw to the hind paws of both right and left paws of Sprague Dawley rats (n=10 per group). Applications of these extracts were carried out every 30 minutes for a total of 90 minutes. Within these 90 minutes, rats received a total of 60 μl/paw of the test article per rat. At 5% concentration, each rat received 3 mg/paw of the test articles. Due to the solubility characteristics of the compounds, two types of vehicles, V1=Dimethyl sulfoxide (DMSO)+propylene glycol (PG)+Aloe (2%), and V2=DMSO+OIL+PG, were used. Percent changes and P-values for statistical significance were determined using respective vehicles for each test material. The vehicle used for each material has been indicated in the parenthesis next to the test material. […] These increases in anti-pain activity were statistically significant. […] This percent change was statistically significant when compared to its respective vehicle.

[3] = system: MIA-induced OA rats; test: MIA-induced OA rats, histopathology (modified Mankin); settings: 10 mg/kg
Method: (§1) Treatment started a week before MIA injection. Animals were randomized into five groups of 10 rats per group as G1=normal, G2=vehicle (0.5% CMC-Na solution), G3=Diclofenac (10 mg/kg, Lot #W08B043, Ward Hill, Mass.), G4=AMK (100 mg/kg) and G5=AMK (300 mg/kg), were orally gavaged with respective treatment. On the induction day, isoflurane (Lot #B66H15A, Piramal Enterprise Ltd. Andhra Pradesh, India) anesthetized rats were injected with 0.8 mg of MIA (Lot #A0352046, Acros Organics, New Jersey, USA) in 50 μL saline solution into the intra-articular pocket of left femorotibial (knee) joint using 26 G needle an hour after treatment. Normal control rats were injected with an equal volume of saline. Paw withdrawal thresholds as a result of constant pressure applied to the affected joint as a measure of pain sensitivity were taken once a week using Randall-Salitto Anesthesiometer (IITC, USA) and treatment lasted for 6 weeks. Body weights were measured once a week to calculate the respective weekly dosage of each group. Urine was collected at the end of study using metabolic cages. Blood samples were collected to isolate serum for biomarker analysis. At necropsy, animals were asphyxiated with CO2 and the femorotibial joint was carefully dissected out, fixed in 10% buffered formalin and sent to Nationwide Histology (Veradale, Wash., USA) for further histopathology analysis. The fixed specimens were then decalcified with Calci-Clear Rapid for 1 and a half days and embedded in paraffin. Standardized […] serial sections were obtained at the medial and lateral mid-condylar level in the sagittal plane and were stained with hematoxylin and eosin (HE) and Safranin O-fast green to enable evaluation of proteoglycan content. A modified Mankin system (Mankin et al., 1981) was used to score structural and cellular alterations of articular components as indications of disease progression and/or treatment efficacy. The histological analysis was conducted by a certified Pathologist at Nationwide Histology.

[4] = system: MIA-induced OA rats; test: MIA-induced OA rats, pain sensitivity (paw withdrawal threshold, Randall-Salitto); settings: 10 mg/kg oral; for inhibition at 10 mg/kg: Rattus norvegicus, po, read-out: Knee compression sensitivity, percent inhibition against vehicle treated MIA rats
Excerpt: The MIA-induced OA disease model in rats is a standardized model most frequently used to mimic human OA (Lee et al., 2014). The model involves inoculation of MIA into a femorotibial joint pocket that induces pain responses in the ipsilateral limb accompanied by progressive cartilage degradation. Intra-articular injection of MIA disrupts chondrocyte glycolysis by inhibiting […] and results in chondrocyte death, neovascularization, subchondral bone necrosis and collapse, as well as inflammation (Guzman et al., 2003). These phenotypic characteristics make the model very attractive to evaluate compounds for their anti-inflammatory, analgesic and/or potential disease-modifying activities as it shares similar disease pathology to the human OA. As a result, we selected this validated in vivo model to investigate the effect of AMK in mitigating pain sensitivity, regulating the phenotype of joint tissue and maintaining articular structural integrity after being administered orally for 6 weeks.
as §1

Compound: O=C(O)Cc1ccccc1Nc1c(Cl)cccc1Cl [Diclofenac]
- IL-6 [1]: 114.2 ± 5.5 pg/mL
- Paw withdrawal threshold (latency) Mean ± SD ([2]; hot plate 53° C., topical, vehicle V1 (DMSO+PG+Aloe 2%), in s (unit assumed)): 6.93 ± 1.50
- % Change ([2]; vs vehicle V1, negative = increased paw withdrawal latency): 2.8%
- inhibition in catabolic inflammation and infiltration of inflammatory cells ([3]; MIA rats): 42.8%
- reduction in matrix GAG loss ([3]; MIA rats): 34.6%
- reduction of overall structural abnormalities ([3]; MIA rats): 41.1%
- Bone Erosion (Mean ± SE) ([3]; modified Mankin score): 3.08 ± 0.50
- Cartilage destruction (Mean ± SE) ([3]; modified Mankin score): 4.00 ± 0.76
- GAG Loss (Mean ± SE) ([3]; modified Mankin score): 3.08 ± 0.57
- Inflammation (Mean ± SE) ([3]; modified Mankin score): 1.31 ± 0.22
- Bone Erosion, reduction (value in parenthesis) ([3]; vs MIA+ vehicle): (40.8) %
- Cartilage destruction, reduction (value in parenthesis) ([3]; vs MIA+ vehicle): (41.10%
- GAG Loss, reduction (value in parenthesis) ([3]; vs MIA+ vehicle): (34.6) %
- Inflammation, reduction (value in parenthesis) ([3]; vs MIA+ vehicle): (42.8) %
- inhibition at 10 mg/kg ([4]; Wk-0): 0.3%
- inhibition at 10 mg/kg ([4]; Wk-1): 19.7%
- inhibition at 10 mg/kg ([4]; Wk-2): 24.1%
- inhibition at 10 mg/kg ([4]; Wk-3): 28.3%
- inhibition at 10 mg/kg ([4]; Wk-4): 30.8%
- inhibition at 10 mg/kg ([4]; wk-5): 31.1%
- Knee compression sensitivity (Mean ± SD) ([4]; Wk-0): 243.1 ± 2.4
- Knee compression sensitivity (Mean ± SD) ([4]; Wk-1): 190.9 ± 2.3
- Knee compression sensitivity (Mean ± SD) ([4]; Wk-2): 190.5 ± 2.6
- Knee compression sensitivity (Mean ± SD) ([4]; Wk-3): 183.8 ± 2.3
- Knee compression sensitivity (Mean ± SD) ([4]; Wk-4): 183.3 ± 1.7
- Knee compression sensitivity (Mean ± SD) ([4]; wk-5): 182.0 ± 1.1
